IC50 data for 4 compounds are collected here from paper PMC3042124 (Organic & biomolecular chemistry, 2010).

What all share (type): biochemical
The target of test [1] is β2 subunit of the constitutive proteasome (Homo sapiens, UniProt P49720+Q99436).
Test [2] concerns the target β5 subunit of the constitutive proteasome (Homo sapiens, UniProt P20618+P28074).
For test [3], the target named is β1 subunit of the constitutive proteasome (Homo sapiens, UniProt P28072+Q99436).

For `CCCC[C@H](NC(=O)[C@@H]1CCCN1C(=O)[C@H](C)NC(C)=O)C(=O)N[C@H](/C=C/S(C)(=O)=O)CC(C)C` [Ib, Ac-Ala-Pro-NLe-Leu-methyl-vinylsulfone], the IC50 – broadly, the midpoint of a concentration-inhibition curve – was over 100 µM in test [1], over 100 µM in test [2] and 7.8 ± 0.86 µM in test [3].
In the case of `COc1ccc(C[C@H](NC(=O)Cc2ccc3ccccc3c2)C(=O)N[C@@H](Cc2ccccc2)C(=O)N[C@H](/C=C/S(C)(=O)=O)CC(C)C)cc1` [IIb, (Tyr(Me)-Phe-Leu-methyl-vinylsulfone)-2-(naphthalen-2-yl)-acetamide], the figures for the IC50 in test [1], in test [2] and in test [3] were over 100 µM, 0.11 ± 0.02 µM and over 100 µM, respectively.
On to `COc1ccc(C[C@H](NC(=O)Cc2ccc3ccccc3c2)C(=O)N[C@@H](Cc2ccccc2)C(=O)N[C@H](/C=C/S(=O)(=O)c2ccc(O)cc2)CC(C)C)cc1` [IIa, (Tyr(Me)-Phe-Leu-4-hydroxyphenyl-vinylsulfone)-2-(naphthalen-2-yl)-acetamide], for which the IC50 was found to be 78 ± 23 µM in test [1], 0.07 ± 0.01 µM in test [2] and 32 ± 16 µM in test [3].
Consider `CCCC[C@H](NC(=O)[C@@H]1CCCN1C(=O)[C@H](C)NC(C)=O)C(=O)N[C@H](/C=C/S(=O)(=O)c1ccc(O)cc1)CC(C)C` [Ia, Ac-Ala-Pro-Nle-Leu-4-hydroxyphenyl-vinylsulfone], for which the results for the IC50 in test [1], in test [2] and in test [3] were over 100 µM, over 100 µM and 4 ± 0.67 µM, respectively.
